Results as given in ChEMBL document CHEMBL1201862, “PubChem BioAssay data set” (2004).
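The compound was tested at five concentrations on cells cultured in 96-well plates, with a 48-hour exposure period. Abbreviation: GI50, concentration required for 50% inhibition of growth.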 Calls of active or inactive are those of the source. No stated cut-off is given here; in the data, active = GI50 up to about 1.1 µM and inactive = higher.

Key:
Experiment in all cases: NCI anticancer screen, dose series, 48 h
SN12C = system: SN12C
Malme-3M = system: Malme-3M
K562 = system: K562
A549 = system: A549
A498 = system: A498
OVCAR-8 = system: OVCAR-8
SK-OV-3 = system: SK-OV-3
TK-10 = system: TK-10
SK-MEL-5 = system: SK-MEL-5
CCRF-CEM = system: CCRF-CEM
U-251 = system: U-251
CAKI-1 = system: CAKI-1
HCC 2998 = system: HCC 2998
NCI-H226 = system: NCI-H226
NCI-H460 = system: NCI-H460
MDA-MB-231 = system: MDA-MB-231
NCI/ADR-RES = system: NCI/ADR-RES
OVCAR-3 = system: OVCAR-3
Hs-578T = system: Hs-578T

Measured: GI50

CCN(CC)CCCC(C)Nc1ccnc2ccc3nn(C)nc3c12 (stereo not drawn)
inactive: SN12C 38.9 µM | Malme-3M 50.6 µM | K562 23.4 µM | A549 47.9 µM | A498 37 µM | OVCAR-8 41.4 µM | SK-OV-3 > 100 µM | TK-10 > 100 µM | SK-MEL-5 > 100 µM | CCRF-CEM 25.1 µM | U-251 65.6 µM | CAKI-1 > 100 µM | HCC 2998 40.2 µM | NCI-H226 39.6 µM | NCI-H460 32.8 µM

Cc1cccc(-c2nc(-c3cnccn3)n(Cc3ccccc3)n2)c1
inactive: SN12C > 100 µM | K562 > 100 µM | A549 > 100 µM | OVCAR-8 99.1 µM | SK-OV-3 65.6 µM | SK-MEL-5 > 100 µM | CCRF-CEM > 100 µM | U-251 > 100 µM | MDA-MB-231 > 100 µM | HCC 2998 > 100 µM | NCI-H460 > 100 µM | NCI/ADR-RES > 100 µM | OVCAR-3 > 100 µM

CC(=O)Nc1ccc(COC(O)CN2CCCCC2)cc1[N+](=O)[O-] (stereo not drawn)
inactive: SN12C > 100 µM | Malme-3M > 100 µM | K562 > 100 µM | A549 > 100 µM | A498 > 100 µM | OVCAR-8 > 100 µM | TK-10 > 100 µM | SK-MEL-5 > 100 µM | CCRF-CEM > 100 µM | U-251 > 100 µM | MDA-MB-231 > 100 µM | CAKI-1 > 100 µM | HCC 2998 > 100 µM | NCI-H226 > 100 µM | NCI-H460 > 100 µM | NCI/ADR-RES > 100 µM | OVCAR-3 > 100 µM

O=C1c2ccccc2-c2nc(-c3ccncc3)cc3c2c1nc1ccccc13
inactive: SN12C 15.1 µM | Malme-3M 4.27 µM | K562 16.1 µM | A549 13.6 µM | OVCAR-8 25.2 µM | SK-OV-3 > 100 µM | TK-10 33.2 µM | CCRF-CEM 9.33 µM | U-251 14.9 µM | MDA-MB-231 > 100 µM | CAKI-1 > 100 µM | HCC 2998 18.7 µM | NCI-H226 16.6 µM | NCI-H460 10.5 µM | NCI/ADR-RES > 100 µM | OVCAR-3 1.52 µM

C=C1c2nc3ccccc3n2C=C(c2ccc(Cl)cc2)N1c1ccccc1
inactive: SN12C 39.9 µM | Malme-3M 12.1 µM | K562 40.6 µM | A549 14.1 µM | A498 37.2 µM | OVCAR-8 9.51 µM | SK-OV-3 16.9 µM | TK-10 12.4 µM | SK-MEL-5 16.1 µM | CCRF-CEM > 100 µM | U-251 18.7 µM | MDA-MB-231 27.2 µM | CAKI-1 15.7 µM | HCC 2998 13.3 µM | NCI-H460 12.4 µM | NCI/ADR-RES 12.2 µM | OVCAR-3 17.2 µM
active: NCI-H226 0.031 µM

CC(=O)OC1C(COC(N)=O)OC(n2c(-c3ccc(C)cc3)cc(-c3ccccc3)c(C#N)c2=O)C(OC(C)=O)C1OC(C)=O (stereo not drawn)
inactive: SN12C > 100 µM | Malme-3M > 100 µM | K562 > 100 µM | A549 > 100 µM | A498 > 100 µM | OVCAR-8 > 100 µM | SK-OV-3 > 100 µM | TK-10 > 100 µM | SK-MEL-5 > 100 µM | CCRF-CEM > 100 µM | U-251 > 100 µM | CAKI-1 > 100 µM | HCC 2998 53.7 µM | NCI-H226 > 100 µM | NCI-H460 96.2 µM | OVCAR-3 > 100 µM

O=C1OCCC1(Cc1ccc(Cl)cc1)Cc1ccc(Cl)cc1
inactive: SN12C > 100 µM | Malme-3M > 100 µM | K562 > 100 µM | A549 > 100 µM | A498 46 µM | OVCAR-8 64.6 µM | SK-OV-3 > 100 µM | TK-10 46.8 µM | CCRF-CEM > 100 µM | U-251 52.1 µM | CAKI-1 > 100 µM | NCI-H226 > 100 µM | NCI-H460 > 100 µM | OVCAR-3 > 100 µM

CN(C)C1(C(=O)O)CC1
inactive: SN12C > 100 µM | Malme-3M > 100 µM | K562 > 100 µM | A549 > 100 µM | A498 > 100 µM | OVCAR-8 > 100 µM | TK-10 > 100 µM | SK-MEL-5 > 100 µM | CCRF-CEM > 100 µM | U-251 > 100 µM | HCC 2998 > 100 µM | NCI-H226 > 100 µM | Hs-578T > 100 µM | NCI-H460 > 100 µM | NCI/ADR-RES > 100 µM | OVCAR-3 > 100 µM

O=[N+]([O-])/C(C(Cl)=C(Cl)Cl)=C(\N1CCCCC1)n1cncn1
inactive: SN12C 17.5 µM | Malme-3M 15.9 µM | K562 > 46 µM | A549 19.7 µM | A498 15.8 µM | OVCAR-8 19.5 µM | SK-OV-3 17.6 µM | TK-10 17.2 µM | SK-MEL-5 12.6 µM | CCRF-CEM 3.79 µM | U-251 13.3 µM | MDA-MB-231 14.8 µM | CAKI-1 10.6 µM | HCC 2998 20 µM | NCI-H226 18.3 µM | NCI-H460 26.2 µM | NCI/ADR-RES 20.1 µM | OVCAR-3 16 µM

COc1cc2c3c(n(C)c(=O)c2cc1OC)-c1cc2c(cc1/C3=C\CCCI)OCO2
active: TK-10 0.649 µM
inactive: SN12C 8.75 µM | Malme-3M 2.23 µM | K562 2.07 µM | A549 38.9 µM | A498 2.38 µM | OVCAR-8 1.73 µM | SK-OV-3 20.9 µM | SK-MEL-5 10.4 µM | CCRF-CEM 1.29 µM | U-251 4.21 µM | CAKI-1 4.35 µM | NCI-H226 1.34 µM | Hs-578T 4.11 µM | NCI-H460 5.42 µM | NCI/ADR-RES 18.1 µM | OVCAR-3 > 61.1 µM

CCN(CC)C1CCC(C2c3cc4c(cc3OC(N3CCOCC3)C2C)OCO4)CC1 (stereo not drawn)
inactive: SN12C > 29.2 µM | Malme-3M 21.6 µM | K562 8.77 µM | A549 27.5 µM | A498 21 µM | OVCAR-8 23.6 µM | TK-10 > 30.6 µM | SK-MEL-5 9.31 µM | CCRF-CEM 27.2 µM | U-251 37.1 µM | CAKI-1 > 100 µM | HCC 2998 10 µM | Hs-578T 28.7 µM | NCI-H460 16.3 µM | NCI/ADR-RES 27 µM | OVCAR-3 14.7 µM

Cc1c2ccccc2c(C)n2c1nc1ccccc12
inactive: SN12C 5.2 µM | Malme-3M 8.69 µM | K562 4.1 µM | A549 4.37 µM | A498 5.42 µM | OVCAR-8 4.97 µM | SK-OV-3 5.96 µM | TK-10 13.4 µM | SK-MEL-5 4.44 µM | CCRF-CEM 5.06 µM | U-251 5.6 µM | HCC 2998 5.43 µM | NCI-H226 11.6 µM | Hs-578T 20.2 µM | NCI-H460 4.1 µM | NCI/ADR-RES 8.57 µM | OVCAR-3 5.41 µM
